From US20080039422A1, “Vitamin B12-Containing Compositions and Methods of Use” (Transition Therapeutics Inc., priority 2004, published 2008)

How the values were obtained:
Format in all cases: physicochemical
[1] = CN-Cbl concentration in excipient solutions after challenge, mixing and heating
Description: The experiments conducted in this series feature cyanocobalamin (CN-Cbl). Varying amounts of CN-Cbl were added to various excipients, including water alone, water with one other agent (e.g., ethanol) and water with two other agents (e.g., ethanol and propylene glycol). The stability was tested after varying amounts of time, and following procedures in which the vitamin B12 compound and its excipient were combined by vigorous mixing and heated.
More specifically, for each excipient condition, CN-Cbl was weighed into an Eppendorf tube, and an appropriate volume of excipient solution was added to achieve the “challenge” concentration in a total volume of ˜0.4-0.7 ml. The tube was then vortexed before being heated to 60° C. for two hours, with additional mixing by vortexing carried out for 5-10 seconds every 5-10 minutes.
Following the mixing and heating procedure described above, the tubes were cooled to room temperature (RT) and left at room temperature for 1-2 hours. Before measuring the concentration of CN-Cbl, the solutions were clarified by centrifugation for ten minutes at rcf 16,100. […] Cyanocobalamin and cyanocobalamin-containing solutions were protected from light (by being kept covered with foil) as much as practicable.
In one study, CN-Cbl was combined with excipients containing propylene glycol, ethanol, PEG 300, or glycerol so that the final maximum concentration of CN-Cbl could be as high as 100 mg/ml. The amount of each excipient was also varied from 5-80% (however, not all possible variants were tested). […] The concentration of CN-Cbl to be solubilized (the “challenge”) in each case was 100 mg/ml of CN-Cbl, and the concentration of each of the excipients varied from 5% to 80% in water. […] The concentrations of CN-Cbl in other excipients were even greater. For example, the concentration of CN-Cbl in solutions containing 40 or 50% PEG 300 was about 45 mg/ml; the concentration in 15% ethanol was about 35 mg/ml; the concentration in 20% ethanol was about 52 mg/ml; and the concentrations in propylene glycol at any concentration over 30% was more than 85 mg/ml (see Table 1).
In other studies, combinations were tested of ethanol and propylene glycol or of ethanol and PEG 300. Tables 2A-2D are tables showing the concentrations of cyanocobalamin (CN-Cbl; mg/ml) in combinations of excipients. […] The concentrations of ethanol ranged from 0-20% and the concentrations of propylene glycol ranged from 0 to 60%. […] In Table 2C, the amount of propylene glycol and the amount of CN-Cbl (the “challenge”) varied. The excipient contained 20% ethanol and 0-40% propylene glycol, and the amount of CN-Cbl challenge added varied from 50-200 mg/ml. Table 2D reports final concentrations of CN-Cbl when excipients containing varying amounts of propylene glycol and ethanol were challenged with 400 mg/ml CN-Cbl.

[2] = Time course of CN-Cbl in solution (8 hours, 200 hours)
Description: To establish more precise time courses, ten samples were prepared containing various challenge amounts of CN-Cbl in solutions containing ethanol and propylene glycol. Five of the solutions contained 15% ethanol and 20% propylene glycol and five contained 20% ethanol and 40% propylene glycol. Within each set of five, they were challenged with: (1) 50 mg/ml CN-Cbl; (2) 75 mg/ml CN-Cbl; (3) 100 mg/ml CN-Cbl; (4) 150 mg/ml CN-Cbl; and (5) 200 mg/ml CN-Cbl. To generate the solutions, the methods described above were modified by heating the solutions for 30 consecutive minutes at 60° C., after which time there was no visible precipitate. Samples were also retained within the same tubes for the duration of the study, rather than transferring supernatant fractions to fresh tubes at each time point. The concentrations were recorded eleven times; seven times within the first eight hours following the initial combination and four times over the subsequent 192 hours. The concentrations were measured at 0.5 hours, 1.0 hour, 2.0 hours, 3.0 hours, 4.0 hours, 6.0 hours, 8.0 hours, 24.0 hours, 32.0 hours, 100 hours, and 200 hours. The concentration of CN-Cbl was measured and the percentage of CN-Cbl remaining in solution was calculated.

[3] = Stability of CN-Cbl solutions stored at room temperature (3 days, 2 weeks); details: After 2 weeks at Room Temperature, ethanol 0%, PG 0% (v/v)

- final concentration of CN-Cbl ([1]; challenge 50 mg/ml, 20% ethanol and 0-40% propylene glycol): about 50 mg/ml
- concentration of CN-Cbl ([1]; challenge 100 mg/mL, Ethanol 10.0% (v/v)): 29400 µg/mL
- concentration of CN-Cbl ([1]; challenge 100 mg/mL, Glycerol 10.0% (v/v)): 18200 µg/mL
- concentration of CN-Cbl ([1]; challenge 100 mg/mL, Glycerol 15.0% (v/v)): 19400 µg/mL
- concentration of CN-Cbl ([1]; challenge 100 mg/mL, Glycerol 20.0% (v/v)): 21500 µg/mL
- concentration of CN-Cbl ([1]; challenge 100 mg/mL, H2O): 14100 µg/mL
- concentration of CN-Cbl ([1]; challenge 100 mg/mL, PEG 300 10.0% (v/v)): 24100 µg/mL
- concentration of CN-Cbl ([1]; challenge 100 mg/mL, PEG 300 20.0% (v/v)): 34400 µg/mL
- concentration of CN-Cbl ([1]; challenge 100 mg/mL, PEG 300 30.0% (v/v)): 40500 µg/mL
- concentration of CN-Cbl ([1]; challenge 100 mg/mL, Propylene Glycol 10.0% (v/v)): 28100 µg/mL
- concentration of CN-Cbl ([1]; challenge 100 mg/mL, Propylene Glycol 20.0% (v/v)): 41800 µg/mL
- concentration of CN-Cbl ([1]; challenge 100 mg/mL, Propylene Glycol 30.0% (v/v)): 95300 µg/mL
- concentration of CN-Cbl ([1]; challenge 100 mg/mL, Propylene Glycol 40.0% (v/v)): 95100 µg/mL
- concentration of CN-Cbl ([1]; challenge 100 mg/mL, Propylene Glycol 50.0% (v/v)): 95100 µg/mL
- concentration of CN-Cbl ([1]; challenge 100 mg/mL, Propylene Glycol 60.0% (v/v)): 95100 µg/mL
- concentration of CN-Cbl ([1]; challenge 100 mg/mL, Propylene Glycol 70.0% (v/v)): 85300 µg/mL
- concentration of CN-Cbl ([1]; challenge 100 mg/mL, Propylene Glycol 80% (v/v)): 90100 µg/mL
- final concentration of CN-Cbl ([1]; challenge 100 mg/ml, 20% ethanol and 0-40% propylene glycol): about 100 mg/ml
- concentration of CN-Cbl ([1]; challenge 100 mg/ml, propylene glycol at any concentration over 30%): more than 85 mg/ml
- final concentration of CN-Cbl ([1]; challenge 175 mg/ml, 20% ethanol and 20% propylene glycol): about 177 mg/ml
- concentration of CN-Cbl ([1]; challenge 200 mg/ml, PEG 300 40%, ethanol 5%): 77000 µg/mL
- concentration of CN-Cbl ([1]; challenge 200 mg/ml, PEG 300 40%, ethanol 10%): 44400 µg/mL
- concentration of CN-Cbl ([1]; challenge 200 mg/ml, PEG 300 40%, ethanol 15%): 62500 µg/mL
- concentration of CN-Cbl ([1]; challenge 200 mg/ml, PG 0%, ethanol 0%): 17500 µg/mL
- concentration of CN-Cbl ([1]; challenge 200 mg/ml, PG 0%, ethanol 5%): 22500 µg/mL
- concentration of CN-Cbl ([1]; challenge 200 mg/ml, PG 0%, ethanol 10%): 28500 µg/mL
- concentration of CN-Cbl ([1]; challenge 200 mg/ml, PG 0%, ethanol 15%): 27700 µg/mL
- concentration of CN-Cbl ([1]; challenge 200 mg/ml, PG 0%, ethanol 20%): 176000 µg/mL
- concentration of CN-Cbl ([1]; challenge 200 mg/ml, PG 20%, ethanol 0%): 31300 µg/mL
- concentration of CN-Cbl ([1]; challenge 200 mg/ml, PG 20%, ethanol 5%): 34400 µg/mL
- concentration of CN-Cbl ([1]; challenge 200 mg/ml, PG 20%, ethanol 10%): 55600 µg/mL
- concentration of CN-Cbl ([1]; challenge 200 mg/ml, PG 20%, ethanol 15%): 182500 µg/mL
- concentration of CN-Cbl ([1]; challenge 200 mg/ml, PG 20%, ethanol 20%): 177500 µg/mL
- concentration of CN-Cbl ([1]; challenge 200 mg/ml, PG 30%, ethanol 0%): 35900 µg/mL
- concentration of CN-Cbl ([1]; challenge 200 mg/ml, PG 30%, ethanol 5%): 64800 µg/mL
- concentration of CN-Cbl ([1]; challenge 200 mg/ml, PG 30%, ethanol 15%): 150500 µg/mL
- concentration of CN-Cbl ([1]; challenge 200 mg/ml, PG 30%, ethanol 20%): 180200 µg/mL
- concentration of CN-Cbl ([1]; challenge 200 mg/ml, PG 40%, ethanol 0%): 172500 µg/mL
- concentration of CN-Cbl ([1]; challenge 200 mg/ml, PG 40%, ethanol 5%): 177100 µg/mL
- concentration of CN-Cbl ([1]; challenge 200 mg/ml, PG 40%, ethanol 10%): 184400 µg/mL
- concentration of CN-Cbl ([1]; challenge 200 mg/ml, PG 40%, ethanol 20%): 186000 µg/mL
- concentration of CN-Cbl ([1]; challenge 200 mg/ml, PG 50%, ethanol 0%): 145100 µg/mL
- concentration of CN-Cbl ([1]; challenge 200 mg/ml, PG 50%, ethanol 5%): 179400 µg/mL
- concentration of CN-Cbl ([1]; challenge 200 mg/ml, PG 50%, ethanol 10%): 190200 µg/mL
- concentration of CN-Cbl ([1]; challenge 200 mg/ml, PG 50%, ethanol 15%): 179400 µg/mL
- concentration of CN-Cbl ([1]; challenge 200 mg/ml, PG 50%, ethanol 20%): 187900 µg/mL
- concentration of CN-Cbl ([1]; challenge 200 mg/ml, PG 60%, ethanol 0%): 185200 µg/mL
- concentration of CN-Cbl ([1]; challenge 200 mg/ml, PG 60%, ethanol 5%): 184800 µg/mL
- concentration of CN-Cbl ([1]; challenge 200 mg/ml, PG 60%, ethanol 10%): 186800 µg/mL
- concentration of CN-Cbl ([1]; challenge 200 mg/ml, PG 60%, ethanol 15%): 186400 µg/mL
- concentration of CN-Cbl ([1]; challenge 200 mg/ml, PG 60%, ethanol 20%): 196000 µg/mL
- concentration of CN-Cbl ([1]; control experiments: water, challenged with 200 mg/ml): about 20 mg/ml
- CN-Cbl solubilized ([1]; water, regardless of the amount of the challenge (50-200 mg/ml)): no more than 30 mg/ml
- CN-Cbl in solution over time ([2]; challenge 150 and 200 mg/ml, greater in 15% ethanol/20% PG than in 20% ethanol/40% PG): some precipitation
- CN-Cbl in solution over time ([2]; first eight hours (held true over 200 hours), challenge 50, 75 and 100 mg/ml, 15% ethanol/20% PG and 20% ethanol/40% PG): remained in solution
- Conc of CN-Cbl ([3]; challenge 50 mg/mL): 11460 µg/mL
- Conc of CN-Cbl ([3]; challenge 75 mg/mL): 12310 µg/mL
Substance: cyanocobalamin [CN-Cbl]
